≈ marks a conversion by molar mass, not a printed value. Structures can show the parent of a compound that is named as a salt. Where two headings read alike, the source gives them in different places. Where a SMILES comes first, the peptide text is derived from it. [ ]: non-standard residue; d: D form.
Experiments:
E. coli ATCC 25922 [1] = assay: Checkerboard dilution assay for synergy between CAMPs and antibiotics; assay type: cell-based
E. coli ATCC 25922 [2] = assay: MIC test for dividing and non-dividing bacterial cultures; assay type: cell-based; conditions: Escherichia coli, ATCC25922, 1 h
[3] = peptide + ampicillin, 5 × 10^3 CFU/mL
[4] = peptide + ampicillin, 5 × 10^5 CFU/mL
[5] = peptide + gentamicin, 5 × 10^3 CFU/mL
[6] = peptide + gentamicin, 5 × 10^5 CFU/mL
[7] = peptide + levofloxacin, 5 × 10^3 CFU/mL
[8] = peptide + levofloxacin, 5 × 10^5 CFU/mL
[9] = read-out: MIC, dividing cells (LB)
[10] = read-out: MIC, non-dividing cells (PBS)

SMILES	FICI (E. coli ATCC 25922 [1]; [3])	FICI (E. coli ATCC 25922 [1]; [4])	FICI (E. coli ATCC 25922 [1]; [5])	FICI (E. coli ATCC 25922 [1]; [6])	FICI (E. coli ATCC 25922 [1]; [7])	FICI (E. coli ATCC 25922 [1]; [8])	MIC (E. coli ATCC 25922 [2]; [9])	MIC (E. coli ATCC 25922 [2]; [10])
CC[C@@H](C)[C@@H](NC(=O)[C@@H](Cc1c[nH]c2ccccc12)NC(=O)[C@H](N)CCCNC(=N)N)C(=O)N[C@H](CCCNC(=N)N)C(=O)N[C@H](Cc1c[nH]c2ccccc12)C(=O)N[C@@H](C(=O)N[C@H](Cc1c[nH]c2ccccc12)C(=O)N[C@H](CCCNC(=N)N)C(=O)N[C@H](CCCCN)C(=O)N[C@H](CCCCN)C(=O)N[C@H](CC(C)C)C(=O)N[C@H](CCCNC(=N)N)C(N)=O)C(C)C [24D] (H-[dR][dW][dI][dR][dW][dV][dW][dR][dK][dK][dL][dR]-NH2)	1.016	0.625	1.015	1	1	1.031		
CC[C@H](C)[C@H](NC(=O)[C@H](Cc1c[nH]c2ccccc12)NC(=O)[C@@H](N)CCCNC(=N)N)C(=O)N[C@@H](CCCNC(=N)N)C(=O)N[C@@H](Cc1c[nH]c2ccccc12)C(=O)N[C@H](C(=O)N[C@@H](Cc1c[nH]c2ccccc12)C(=O)N[C@@H](CCCNC(=N)N)C(=O)N[C@@H](CCCCN)C(=O)N[C@@H](CCCCN)C(=O)N[C@@H](CC(C)C)C(=O)N[C@@H](CCCNC(=N)N)C(N)=O)C(C)C [24L] (H-RWIRWVWRKKLR-NH2)	0.625	0.5	1	0.5	0.75	0.5		
CC1(C)S[C@@H]2[C@H](NC(=O)[C@H](N)c3ccccc3)C(=O)N2[C@H]1C(=O)O [Ampicillin, ampicillin sodium salt]							> 100 µg/mL	> 100 µg/mL
CNC(C)C1CCC(N)C(OC2C(N)CC(N)C(OC3OCC(C)(O)C(NC)C3O)C2O)O1 (stereo not shown) [Gentamicin, gentamicin]							50 µg/mL (≈ 105 µM)	25 µg/mL (≈ 52.3 µM)
CC[C@H](C)[C@H](NC(=O)[C@H](C)N)C(=O)N[C@@H](CCCCN)C(=O)N[C@H](C(=O)N[C@@H](CCCNC(=N)N)C(=O)N[C@@H](CCCCN)C(=O)N[C@@H](CC(C)C)C(=O)N[C@@H](Cc1ccccc1)C(=O)N[C@@H](CCCCN)C(=O)N[C@@H](CCCCN)C(=O)N[C@@H](CC(C)C)C(=O)N[C@@H](CC(C)C)C(=O)N[C@@H](CCCNC(=N)N)C(N)=O)[C@@H](C)CC [L1L] (H-AIKIRKLFKKLLR-NH2)	0.563	0.5	0.75	0.5	0.625	0.5		
CC[C@H](C)[C@H](NC(=O)CN)C(=O)N[C@@H](CCCCN)C(=O)N[C@H](C(=O)N[C@@H](CCCNC(=N)N)C(=O)N[C@@H](CCCCN)C(=O)N[C@@H](CC(C)C)C(=O)N[C@@H](Cc1ccccc1)C(=O)N[C@@H](CCCCN)C(=O)N[C@@H](CCCCN)C(=O)N[C@@H](CC(C)C)C(=O)N[C@@H](CC(C)C)C(=O)N[C@@H](CCCNC(=N)N)C(N)=O)[C@@H](C)CC [LCAPL2] (H-GIKIRKLFKKLLR-NH2)	0.5	0.75	0.625	0.375	0.531	0.625		
CC[C@H](C)[C@H](NC(=O)[C@H](CCCNC(=N)N)NC(=O)[C@H](CCCCN)NC(=O)[C@H](CC(C)C)NC(=O)[C@H](Cc1ccccc1)NC(=O)[C@H](CCCNC(=N)N)NC(=O)[C@H](C)NC(=O)[C@@H](N)C(C)C)C(=O)N[C@H](C(=O)N[C@@H](CCCCN)C(=O)N[C@@H](C)C(=O)N[C@@H](CC(C)C)C(=O)N[C@@H](Cc1ccccc1)C(N)=O)[C@@H](C)CC [LCAPL8] (H-VARFLKRIIKALF-NH2)	1.016	1.031	1.031	0.531	1.25	0.625		
CC[C@H](C)[C@H](NC(=O)[C@H](Cc1ccccc1)NC(=O)CN)C(=O)N[C@@H](CCCCN)C(=O)N[C@H](C(=O)N[C@H](C(=O)N[C@@H](CCCNC(=N)N)C(=O)N[C@@H](CCCCN)C(=O)N[C@@H](CC(C)C)C(=O)N[C@@H](CC(C)C)C(=O)N[C@@H](CCCNC(=N)N)C(=O)N[C@@H](CC(C)C)C(=O)N[C@@H](Cc1ccccc1)C(N)=O)C(C)C)[C@@H](C)CC [LCAPL9] (H-GFIKIVRKLLRLF-NH2)	1.016	0.625	1	1.031	2	1.25		
CC[C@H](C)[C@H](N)C(=O)N[C@H](C(=O)N[C@@H](CCCCN)C(=O)N[C@@H](CCCNC(=N)N)C(=O)N[C@H](C(=O)N[C@@H](CC(C)C)C(=O)N[C@H](C(=O)N[C@@H](CCC(N)=O)C(=O)N[C@@H](CC(C)C)C(=O)N[C@@H](CCCCN)C(=O)N[C@@H](CCCCN)C(=O)N[C@@H](CC(C)C)C(=O)N[C@@H](CC(C)C)C(N)=O)[C@@H](C)CC)[C@@H](C)CC)[C@@H](C)CC [LCAPL10] (H-IIKRILIQLKKLL-NH2)	1.016	0.75	1.125	0.5	1.031	0.531		
CC(C)C[C@H](NC(=O)[C@H](Cc1ccccc1)NC(=O)[C@H](CCCCN)NC(=O)[C@@H](N)CCCCN)C(=O)NCC(=O)N[C@@H](CCCCN)C(=O)N[C@@H](Cc1c[nH]c2ccccc12)C(=O)N[C@@H](CCCCN)C(=O)N[C@@H](CC(C)C)C(=O)N[C@@H](CCCNC(=N)N)C(=O)N[C@@H](Cc1ccccc1)C(=O)NCC(=O)N[C@@H](Cc1c[nH]c2ccccc12)C(N)=O [LCAPL15] (H-KKFLGKWKLRFGW-NH2)	0.75	0.563	1.031	0.75	0.75	0.563		
CC(C)C[C@@H](N)C(=O)N[C@@H](C(=O)N[C@H](Cc1c[nH]c2ccccc12)C(=O)N[C@H](CCCCN)C(=O)N[C@H](CC(C)C)C(=O)N[C@H](Cc1c[nH]c2ccccc12)C(=O)N[C@H](Cc1c[nH]c2ccccc12)C(=O)N[C@H](CCCNC(=N)N)C(=O)N[C@H](CC(C)C)C(=O)N[C@H](CCCNC(=N)N)C(=O)N[C@H](Cc1c[nH]c2ccccc12)C(=O)N[C@H](CC(C)C)C(=O)N[C@H](CCCCN)C(N)=O)C(C)C [ST1D] (H-[dL][dV][dW][dK][dL][dW][dW][dR][dL][dR][dW][dL][dK]-NH2)	0.625	0.625	0.516	0.625	1	1.031		
CC(C)C[C@H](NC(=O)[C@H](Cc1c[nH]c2ccccc12)NC(=O)[C@H](CCCNC(=N)N)NC(=O)[C@H](CC(C)C)NC(=O)[C@H](CCCNC(=N)N)NC(=O)[C@H](Cc1c[nH]c2ccccc12)NC(=O)[C@H](Cc1c[nH]c2ccccc12)NC(=O)[C@H](CC(C)C)NC(=O)[C@H](CCCCN)NC(=O)[C@H](Cc1c[nH]c2ccccc12)NC(=O)[C@@H](NC(=O)[C@@H](N)CC(C)C)C(C)C)C(=O)N[C@@H](CCCCN)C(N)=O [ST1L] (H-LVWKLWWRLRWLK-NH2)	0.375	0.625	1	0.516	0.625	0.75		

Reference: article PMC10979160 (Heliyon, 2024)
